Data from paper PMC8276771 (Bioorganic & medicinal chemistry letters, 2021).
“Also recorded” adds a separate entry of the source. Each block holds one molecule with its values, some of them ahead of it.

How the values were obtained:
human P2Y6R = human P2Y6R (Homo sapiens, UniProt Q15077); experiment: Calcium mobilization; conditions: for fold reduction of P2Y6R potency relative to UDP 1 / P2Y6R activation (in words): calcium mobilization; for P2Y6R activation (in words): hP2Y6R
rat CD73 = conditions: rat CD73, 5 μM AMP substrate, ref Junker et al. [33], cited from earlier work
[1] = test system: 46 receptors, channels and transporters; experiment: PDSP off-target panel; type: binding
hP2Y14R = molecular target: T1, hP2Y14R (Homo sapiens, UniProt Q15391); experiment: Fluorescent antagonist binding assay by flow cytometry of hP2Y14R-CHO cells
T1 sequence (Q15391 1-338): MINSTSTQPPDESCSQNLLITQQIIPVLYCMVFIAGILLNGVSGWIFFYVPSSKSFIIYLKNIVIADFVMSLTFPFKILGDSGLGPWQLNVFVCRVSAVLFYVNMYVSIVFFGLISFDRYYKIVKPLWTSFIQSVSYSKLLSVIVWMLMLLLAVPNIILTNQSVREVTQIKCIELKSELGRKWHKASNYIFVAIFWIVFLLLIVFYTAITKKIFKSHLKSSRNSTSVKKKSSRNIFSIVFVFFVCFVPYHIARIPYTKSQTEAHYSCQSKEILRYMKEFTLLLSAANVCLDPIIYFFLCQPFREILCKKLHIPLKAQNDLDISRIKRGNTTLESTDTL

hP2YR = conditions: cited from earlier work
P2Y14R = conditions: cited from earlier work
hP2Y6R = conditions: read-out: hP2Y6R EC50; cited from earlier work

human P2Y6R, sequence (Q15077 whole entry): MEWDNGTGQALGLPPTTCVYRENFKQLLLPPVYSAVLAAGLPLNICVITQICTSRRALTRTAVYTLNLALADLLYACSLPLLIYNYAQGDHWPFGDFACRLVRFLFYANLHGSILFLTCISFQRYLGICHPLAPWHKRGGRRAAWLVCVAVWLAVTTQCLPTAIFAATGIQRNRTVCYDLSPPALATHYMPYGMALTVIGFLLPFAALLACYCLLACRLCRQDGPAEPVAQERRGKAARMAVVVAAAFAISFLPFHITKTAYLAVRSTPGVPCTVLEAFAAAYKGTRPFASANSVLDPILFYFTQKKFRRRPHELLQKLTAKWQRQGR

fold reduction of P2Y6R potency relative to UDP 1 (human P2Y6R): 12 fold
SMILES: CCN(CC)CC.CCN(CC)CC.CO/N=c1/ccn([C@@H]2O[C@H](COP(=O)(O)OP(=O)(O)O)[C@@H](O)[C@H]2O)c(=O)[nH]1 [Compound 11]

fold reduction of P2Y6R potency relative to UDP 1 (human P2Y6R): 19 fold
SMILES: CCN(CC)CC.CCN(CC)CC.O=c1[nH]/c(=N/OCc2ccccc2)ccn1[C@@H]1O[C@H](COP(=O)(O)OP(=O)(O)O)[C@@H](O)[C@H]1O [Compound 13]

off-target activities (significant = >50% binding inhibition at 10 μM) [1]: no significant
SMILES: O=c1ccn([C@@H]2O[C@H](COP(=O)(O)CP(=O)(O)O)[C@@H](O)[C@H]2O)c(=S)[nH]1 [Compound 14b, 2-thiouridine-5′-O-(α,β-methylene)diphosphate, reference compound]
CD73 % inhibition at 1 μM (rat CD73; 1 μM): 7%

selectivity between P2Y6R and P2Y14R (in words) (hP2Y14R): nonselective
SMILES: CCN(CC)CC.CCN(CC)CC.O=c1[nH]c(=O)n([C@@H]2O[C@H](COP(=O)(O)CP(=O)(O)O)[C@@H](O)[C@H]2O)cc1F [Compound 16, 5-Fluoro-5′-αβ-methylene-UDP]
IC50 (rat CD73; read-out: CD73 IC50): > 1000 nM

EC50 (human P2Y6R): 1690 nM
SMILES: O=c1[nH]/c(=N\OCc2ccc(S(F)(F)(F)(F)F)cc2)ccn1[C@@H]1O[C@H](COP(=O)(O)CP(=O)(O)O)[C@@H](O)[C@H]1O [Compound 27]

selectivity between P2Y6R and P2Y14R (in words) (hP2Y14R): nonselective
SMILES: CCN(CC)CC.CCN(CC)CC.O=C(/N=c1/ccn([C@@H]2O[C@H](COP(=O)(O)CP(=O)(O)O)[C@@H](O)[C@H]2O)c(=O)[nH]1)c1ccccc1 [Compound 30]

The remaining lines, values behind:

SMILES: CCN(CC)CC.CCN(CC)CC.Cn1c(=O)n([C@@H]2O[C@H](COP(=O)(O)CP(=O)(O)O)[C@@H](O)[C@H]2O)cc/c1=N/OCc1ccccc1 [Compound 37]
P2Y6R activation (in words) (human P2Y6R): completely prevent P2Y6R activation; also recorded: prevented P2Y6R activation

SMILES: CCN(CC)CC.CCN(CC)CC.CCn1c(=O)n([C@@H]2O[C@H](COP(=O)(O)CP(=O)(O)O)[C@@H](O)[C@H]2O)cc/c1=N/OCc1ccccc1 [Compound 38]
P2Y6R activation (in words) (human P2Y6R): completely prevent P2Y6R activation; also recorded: prevented P2Y6R activation

SMILES: O=c1ccn([C@@H]2O[C@H](COP(=O)(O)CP(=O)(O)O)[C@@H](O)[C@@H]2O)c(=O)[nH]1 [Compound 39]
P2Y6R activation (in words) (human P2Y6R): completely prevent P2Y6R activation; also recorded: prevented P2Y6R activation

SMILES: O=c1cnn([C@@H]2O[C@H](COP(=O)(O)CP(=O)(O)O)[C@@H](O)[C@H]2O)c(=O)[nH]1 [Compound 40]
P2Y6R activation (in words) (human P2Y6R): completely prevent P2Y6R activation; also recorded: prevented P2Y6R activation

SMILES: O=c1ccn([C@@H]2O[C@H](COP(=O)(O)O)[C@@H](O)[C@H]2O)c(=O)[nH]1 [UMP]
activation of hP2YRs (in words) (hP2YR): does not activate any hP2YR

SMILES: O=c1ccn([C@@H]2O[C@H](COP(=O)(O)OP(=O)(O)OP(=O)(O)O)[C@@H](O)[C@H]2O)c(=O)[nH]1 [UTP]
P2Y14R activity (in words) (P2Y14R): inactive | EC50 (hP2Y6R): > 10 µM
